From patent publication US20050080142A1 (priority 2003, published 2005)

How the values were obtained:
Assay type in all cases: cell-based
[1] = tested on: Acanthamoeba (Trophozoite)
[2] = tested on: Tetrahymena (Trophozoite)
Acanthamoeba (Cyst) = tested on: Acanthamoeba (Cyst)

## CCCCCCCCCCCCNC(=N)N [Dodecylguanidine]
[1]
  Minimal Lethal Concentration, Acanthamoeba (Trophozoite): 25 µg/mL
[2]
  Minimal Lethal Concentration, Tetrahymena (Trophozoite): 10 µg/mL
Acanthamoeba (Cyst)
  Minimal Lethal Concentration, Acanthamoeba (Cyst): 40 µg/mL

## N=C(N)N [Guanidine]
[1]
  Minimal Lethal Concentration, Acanthamoeba (Trophozoite): 500 µg/mL
[2]
  Minimal Lethal Concentration, Tetrahymena (Trophozoite): 400 µg/mL
Acanthamoeba (Cyst)
  Minimal Lethal Concentration, Acanthamoeba (Cyst): 500 µg/mL

## [H]/N=C(\N/C(=N/[H])NCCCCCCNC(=N)NC(=N)Nc1ccc(Cl)cc1)Nc1ccc(Cl)cc1 [Chlorhexidine]
[1]
  Minimal Lethal Concentration, Acanthamoeba (Trophozoite): 10 µg/mL
[2]
  Minimal Lethal Concentration, Tetrahymena (Trophozoite): 15 µg/mL
Acanthamoeba (Cyst)
  Minimal Lethal Concentration, Acanthamoeba (Cyst): 50 µg/mL
